According to patent US20040019066A1, “Methionine salvage pathway in bacillus” (priority 2002, published 2004):

Key:
B. subtilis [1] = conditions: if the methyl sulfur moiety of the molecule is recycled; reference [13]; cited from earlier work
B. subtilis [2] = assay: Growth in the presence of trifluoromethylthioribose (3F-MTR), resistance phenotype; format: cell-based, Bacillus subtilis; conditions: inactivation of mtnK, mtnS, mtnY and mtnW
From the text: Mutants were obtained by transformation of a wild type strain with a random transposon library, selecting for growth in the presence of trifluoromethylthioribose (3F-MTR). The mutants were subsequently tested for growth on plates lacking sulfur source but supplemented with MTR: only those that could not grow were retained for further study. In order to ascertain that the resistant phenotype was not coming from secondary mutations but was directly related to the transposon insert, the chromosome DNA was extracted from each putative mutant and back transformed into a wild type strain selecting for the transposon antibiotic marker. The 3F-MTR and MTR phenotypes were subsequently tested and only those mutants that passed the test were retained. The insertion positions of the transposons were then sequenced. […]
(§1) Bacterial strains and plasmids, and growth media: E. coli and B. subtilis strains as well as plasmids used in this work are listed in Table 3. […] In the latter case, 10 [μl of the sulfur source under investigation was applicated onto paper discs (MTR, 200 mM stock solution and methionine, 100 mM stock solution) deposited at the center of the plate, after bacteria had been uniformly spread at the surface of the plate, and growth was measured around the disK. […] The optical density (OD) of bacterial cultures was measured at 600 nm. […]

[3] = tested on: Strain BSHP7014 (mtnW:lacZ amyE::pxyl mtnXYZ); assay: Toxicity of MTR for BSHP7014 strain (paper disc on ED1 minimal medium plates); format: cell-based, Bacillus subtilis; conditions: inferred from MTR toxicity in mtnU or mtnW mutants with functional mtnY
Method: Toxicity of MTR for BSHP7014 strain. Strain BSHP7014 (mtnW:lacZ amyE::pxyl mtnXYZ) was grown on ED1 minimal medium plates in the presence of sulfate as sulfur source (panel A) or in the absence of any added sulfur source (agar as sole sulfur source, panel B). Xylose was added to the medium in order to trigger the expression of mtnXYZ from the pxyl promoter, 10 μl of methionine (met) or MTR was adsorbed on paper discs and plates were incubated over-night at 37° C. Methionine was used as a control for growth and/or toxicity of the sulfur source.
Two genes in the pathway are dispensable, mtnV and mtnX. The first one encodes a transaminase of which there are nine putative paralogs in the genome of B. subtilis (YwfG, AlaT, AspB, PatA, YhdR, YdfD, PatB, YisV, and HisC). In the same way, MtnX (YkrX) is a member of the phosphatase family pfam00702 ([12], FIG. 6), and therefore of a ubiquitous class of hydrolases (several phosphatase genes, in particular are present in the genome of B. subtilis). This is likely to account for the lack of phenotype under our growth conditions. […] In contrast, we discovered that MTR is toxic when the distal genes are present (when used as sole sulfur source or in the presence of sulfate, see FIG. 7). Because of the weak phenotype of a mtnZ mutant and the absence of phenotype of a mtnX mutant, we can be confident that MtnY acts before MtnW (this is a common feature in operons, where it is generally observed that the more distal genes code for proteins acting in the more proximate steps of the pathway).
as §1, with “3. E. coli TG1 and XL1-Blue were used for cloning experiments (TG1 for single cross-over recombination and XL1-Blue for double cross-over recombination). Despite the fact that there are no public regulations yet in this domain in China, all experiments were performed in accordance with the European regulation requirements concerning the contained use of Genetically Modified Organisms of Group-I (French agreement N^o 2735).” for “3.”

| Structure (SMILES) | Toxicity of the MTR analog (B. subtilis [1]) | Phenotype towards 3F-MTR (B. subtilis [2]) | Toxicity to the cells [3] |
| --- | --- | --- | --- |
| O=C[C@H](O)[C@H](O)[C@H](O)CSC(F)(F)F [3F-MTR, 5-thio-5-5-S-trifluoromethyl-D-ribose] | toxic | resistance |  |
| CSCC(O)C(O)C(=O)COP(=O)(O)O (stereo not drawn) [5-thiomethylribulose-1-phosphate] |  |  | toxic |
